US20220064146A1, “KINASE INHIBITOR COMPOUNDS AND COMPOSITIONS AND METHODS OF USE” (ICAHN SCHOOL OF MEDICINE AT MOUNT SINAI, priority 2018, published 2022)
pIC50: −log10 of the molar value. “And” between values parts separate entries of the source, which are not always exact repeats. Equal entries are not always repeated.

Molecular target: T1, DYRK1/DYRK1A (Homo sapiens, UniProt Q13627)
T1 construct: purchased Reaction Biology Corp. (assay service)
Experiment: DYRK1/DYRK1A IC50 assay (Reaction Biology Corp.)
Type: biochemical
Details: DYRK1/DYRK1A assay from Reaction Biology Corp.; NI: No inhibition

Compound	pIC50
O=c1[nH]c2ccc(-c3cnc(NCCCc4ccccc4)nc3)cc2[nH]1 [Compound 29l, 5-(2-((3-Phenylpropyl)amino)pyrimidin-5-yl)-1H-benzo[d]imidazol-2(3H)-one]	7.47
COc1ccc(Nc2ncc(-c3ccc4[nH]c(=O)[nH]c4c3)cn2)cc1 [Compound 48i, 5-(2-((4-Methoxyphenyl)amino)pyrimidin-5-yl)-1H-benzo[d]imidazol-2(3H)-one]	7.52
O=c1[nH]c2ccc(-c3cnc(NCc4cc[nH]n4)nc3)cc2[nH]1 [Compound 51e, 5-(2-(((1H-Pyrazol-3-yl)methyl)amino)pyrimidin-5-yl)-1H-benzo[d]imidazol-2(3H)-one]	6.47
COc1cccc(Nc2ncc(-c3ccc4[nH]c(=O)[nH]c4c3)cn2)c1 [Compound 48h, 5-(2-((3-Methoxyphenyl)amino)pyrimidin-5-yl)-1H-benzo[d]imidazol-2(3H)-one]	7.63
O=c1[nH]c2ccc(-c3cnc(NCc4c[nH]cn4)nc3)cc2[nH]1 [Compound 51d, 5-(2-(((1H-Imidazol-4-yl)methyl)amino)pyrimidin-5-yl)-1H-benzo[d]imidazol-2(3H)-one]	6.49

Now from value to compound:

pIC50	Compound
6.30	COc1ccccc1Nc1ncc(-c2ccc3[nH]c(=O)[nH]c3c2)cn1 [Compound 48g, 5-(2-((2-Methoxyphenyl)amino)pyrimidin-5-yl)-1H-benzo[d]imidazol-2(3H)-one]
7.23	O=c1[nH]c2ccc(-c3cnc(Nc4ccccc4Cl)nc3)cc2[nH]1 [Compound 48d, 5-(2-((2-Chlorophenyl)amino)pyrimidin-5-yl)-1H-benzo[d]imidazol-2 (3H)-one]

Molecular target: DYRK1A (Homo sapiens, UniProt Q13627)
Experiment: DYRK1A binding assay (DiscoverX KINOMEscan)
Details: eleven serial three fold dilutions, highest concentration 60 μM
Description: Compounds were tested for DYRK1A binding activity at the commercial kinase profiling service DiscoverX. DiscoverX uses proprietary KINOMEscan® Assay (Fabian et al., “A Small Molecule-kinase Interaction Map for Clinical Kinase Inhibitors,” Nat. Biotechnol. 23(3):329-336 (2005), which is hereby incorporated by reference in its entirety). Compounds were screened for DYRK1A activity at a single concentration of 3 μM in duplicates. Similarly, the dissociation constant Kd of the hit compounds from the initial screening was determined at DiscoverX using their proprietary KINOMEscan® Assay. Kd values are determined using eleven serial three fold dilutions with the highest concentration of 60 μM.

Compound	Kd
O=c1[nH]c2ccc(-c3cnc(NCc4ccc5ccccc5c4)nc3)cc2[nH]1 [Compound 30e, 5-(2-((Naphthalen-2-ylmethyl)amino)pyrimidin-5-yl)-1H-benzo[d]imidazol-2(3H)-one]	7100 nM
N#Cc1cccc(CNc2ncc(-c3ccc4[nH]c(=O)[nH]c4c3)cn2)c1 [Compound 29f, 3-(((5-(2-Oxo-2,3-dihydro-1H-benzo[d]imidazol-5-yl)pyrimidin-2-yl)amino)methyl)benzonitrile]	49 nM
NC(=O)c1cccc(CNc2ncc(-c3ccc4[nH]c(=O)[nH]c4c3)cn2)c1 [Compound 32a, 3-(((5-(2-Oxo-2,3-dihydro-1H-benzo[d]imidazol-5-yl)pyrimidin-2-yl)amino)methyl)benzamide]	130 nM
O=c1[nH]c2ccc(-c3cnc(NCc4ccncc4)nc3)cc2[nH]1 [Compound 30c, 5-(2-((Pyridin-4-ylmethyl)amino)pyrimidin-5-yl)-1H-benzo[d]imidazol-2 (3H)-one]	130 nM
O=c1[nH]c2ccc(-c3cnc(NCc4cccc(Cl)c4)nc3)cc2[nH]1 [Compound 29d, 5-(2-((3-Chlorobenzyl)amino)pyrimidin-5-yl)-1H-benzo[d]imidazol-2(3H)-one]	280 nM
O=c1[nH]c2ccc(-c3cnc(NCc4ccccc4Cl)nc3)cc2[nH]1 [Compound 29c, 5-(2-((2-Chlorobenzyl)amino)pyrimidin-5-yl)-1H-benzo[d]imidazol-2(3H)-one]	250 nM
O=c1[nH]c2ccc(-c3cnc(NCc4ccc(F)cc4)cn3)cc2[nH]1 [Compound 18d, 5-(5-((4-Fluorobenzyl)amino)pyrazin-2-yl)-1H-benzo[d]imidazol-2 (3H)-one]	260 nM
NC(=O)c1ccc(CNc2ncc(-c3ccc4[nH]c(=O)[nH]c4c3)cn2)cc1 [Compound 32b, 4-(((5-(2-Oxo-2,3-dihydro-1H-benzo[d]imidazo1-5-yl)pyrimidin-2-yl)amino)methyl)benzamide]	46 nM
O=c1[nH]c2ccc(-c3cnc(NCc4ccc(-c5ccccc5)cc4)nc3)cc2[nH]1 [Compound 29h, 5-(2-(([1,1′-Biphenyl]-4-ylmethyl)amino)pyrimidin-5-yl)-1H-benzo[d]imidazol-2(3H)-one]	1400 nM
O=c1[nH]c2ccc(-c3cnc(NCCc4ccccc4)nc3)cc2[nH]1 [Compound 29k, 5-(2-(Phenethylamino)pyrimidin-5-yl)-1H-benzo[d]imidazol-2(3H)-one]	200 nM
CC(Nc1ncc(-c2ccc3[nH]c(=O)[nH]c3c2)cn1)c1ccccc1 (centres unmarked) [Compound 29j, 5-(2-((1-Phenylethyl)amino)pyrimidin-5-yl)-1H-benzo[d]imidazol-2(3H)-one]	360 nM
O=c1[nH]c2ccc(-c3cnc(NCc4ccccc4)nc3)cc2[nH]1 [Compound 16c]	50 nM and 95 nM and 80 nM and 60 nM
O=c1[nH]c2ccc(-c3ccc(NCc4ccc(F)cc4)nn3)cc2[nH]1 [Compound 16a, 5-(6-((4-Fluorobenzyl)amino)pyridazin-3-yl)-1H-benzo[d]imidazol-2 (3H)-one]	7000 nM

Further lines, results first:

Kd	Compound
59 nM	Cn1c(=O)[nH]c2ccc(-c3cnc(NCc4ccccc4)nc3)cc21 [Compound 17c, 6-(2-(Benzylamino)pyrimidin-5-yl)-1-methyl-1H-benzo[d]imidazol-2(3H)-one]
2300 nM	Fc1ccc(CNc2ncc(-c3ccc4[nH]cnc4c3)cn2)cc1 [Compound 17j, 5-(1H-Benzo[d]imidazol-5-yl)-N-(4-fluorobenzyl)pyrimidin-2-amine]
920 nM	O=c1[nH]c2ccc(-c3cnc(NCc4cccc5ccccc45)nc3)cc2[nH]1 [Compound 30d, 5-(2-((Naphthalen-1-ylmethyl)amino)pyrimidin-5-yl)-1H-benzo[d]imidazol-2 (3H)-one]
69 nM	O=c1[nH]c2ccc(-c3cnc(NCc4ccccc4F)nc3)cc2[nH]1 [Compound 29a, 5-(2-((2-Fluorobenzyl)amino)pyrimidin-5-yl)-1H-benzo[d]imidazol-2(3H)-one]
73 nM and 82 nM and 140 nM	O=c1[nH]c2ccc(-c3cnc(NCc4ccc(F)cc4)nc3)cc2[nH]1 [Compound 16b, 5-(2-((4-Fluorobenzyl)amino)pyrimidin-5-yl)-1H-benzo[d]imidazol-2(3H)-one]
120 nM	N#Cc1ccc(CNc2ncc(-c3ccc4[nH]c(=O)[nH]c4c3)cn2)cc1 [Compound 29g, 4-(((5-(2-Oxo-2,3-dihydro-1H-benzo[d]imidazol-5-yl)pyrimidin-2-yl)amino)methyl)benzonnrile]
2000 nM	c1ccc(CNc2ncc(-c3ccc4[nH]cnc4c3)cn2)cc1 [Compound 17i, 5-(1H-Benzo[d]imidazol-5-yl)-N-benzylpyrimidin-2-amine]
90 nM	Cn1c(=O)[nH]c2ccc(-c3cnc(NCc4ccc(F)cc4)nc3)cc21 [Compound 17d, 6-(2-((4-Fluorobenzyl)amino)pyrimidin-5-yl)-1-methyl-1H-benzo[d]imidazol-2 (3H)-one]
190 nM	O=c1[nH]c2ccc(-c3cnc(NCc4cccnc4)nc3)cc2[nH]1 [Compound 30b, 5-(2-((Pyridin-3-ylmethyl)amino)pyrimidin-5-yl)-1H-benzo[d]imidazol-2(3H)-one]
170 nM	O=c1[nH]c2ccc(-c3cnc(NCc4ccccc4)cn3)cc2[nH]1 [Compound 18c, 5-(5-(Benzylamino)pyrazin-2-yl)-1H-benzo[d]imidazol-2(3H)-one]
91 nM	O=c1[nH]c2ccc(-c3cnc(NCc4cccc(F)c4)nc3)cc2[nH]1 [Compound 29b, 5-(2-((3-Fluorobenzyl)amino)pyrimidin-5-yl)-1H-benzo[d]imidazol-2(3H)-one]
180 nM	O=c1[nH]c2ccc(-c3cnc(NCc4ccc(Cl)cc4)nc3)cc2[nH]1 [Compound 29e, 5-(2-((4-Chlorobenzyl)amino)pyrimidin-5-yl)-1H-benzo[d]imidazol-2(3H)-one]
